Experimental data taken from patent US10457709B2, “Antimicrobial peptides, their variants and uses” (priority 2015, dated 2019).
Where two headings read alike, the source gives them in different places. Square brackets hold non-standard residues; d marks the D form. Peptide text beside a SMILES is read from it.

Assays:
[1] = tested on: Escherichia coli clinical strains; assay type: cell-based; conditions: microdilution, Muller Hinton broth-cation adjusted, 0.02% BSA, 0.2% acetic acid
Outline: (§1)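 Broth microdilution in Mueller Hinton broth, inoculum adjusted to 5.0×10^5 cfu/ml, peptides tested at 0.125 to 128 μg/ml, 37° C for 20 to 24 hours. Yeast assays were run in potato dextrose broth. MIC was taken as the lowest concentration with no visible growth.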

[2] = tested on: all the bacteria and yeasts tested; assay type: cell-based
Outline: as §1

[3] = tested on: Klebsiella pneumoniae clinical strains; assay type: cell-based; conditions: microdilution, Muller Hinton broth-cation adjusted, 0.02% BSA, 0.2% acetic acid
Outline: as §1

[4] = tested on: Pseudomonas aeruginosa clinical strains; assay type: cell-based; conditions: microdilution, Muller Hinton broth-cation adjusted, 0.02% BSA, 0.2% acetic acid
Outline: as §1

[5] = tested on: Acinetobacter johnsonii clinical strains; assay type: cell-based; conditions: Acinetobacter johnsonii clinical strain 1; microdilution, Muller Hinton broth-cation adjusted, 0.02% BSA, 0.2% acetic acid
Outline: as §1

[6] = tested on: C. glabrata clinical strains; assay: MIC, clinical yeast strains; assay type: cell-based, Candida glabrata; design: unit: µg/ml
Outline: as §1

[7] = tested on: C. parapsilosis clinical strains; assay: MIC, clinical yeast strains; assay type: cell-based, Candida parapsilosis; design: unit: µg/ml
Outline: as §1

[8] = tested on: Serratia marcescens clinical strains; assay type: cell-based; design: Minimum inhibitory concentration: unit: μg/ml; conditions: for Minimum inhibitory concentration: microdilution, Muller Hinton broth-cation adjusted, 0.02% BSA, 0.2% acetic acid
Outline: as §1

[9] = tested on: Proteus mirabilis clinical strains; assay type: cell-based; design: Minimum inhibitory concentration: unit: μg/ml; conditions: for Minimum inhibitory concentration: microdilution, Muller Hinton broth-cation adjusted, 0.02% BSA, 0.2% acetic acid
Outline: as §1

[10] = tested on: Acinetobacter baumannii clinical strains; assay type: cell-based; design: Minimum inhibitory concentration: unit: μg/ml; conditions: microdilution, Muller Hinton broth-cation adjusted, 0.02% BSA, 0.2% acetic acid
Outline: as §1

[11] = tested on: Enterobacter cloacae clinical strains; assay type: cell-based; design: Minimum inhibitory concentration: unit: μg/ml; conditions: microdilution, Muller Hinton broth-cation adjusted, 0.02% BSA, 0.2% acetic acid
Outline: as §1

[12] = tested on: Streptococcus pneumoniae clinical strains; assay type: cell-based; design: Minimum inhibitory concentration: unit: μg/ml; conditions: microdilution, Muller Hinton broth-cation adjusted, 0.02% BSA, 0.2% acetic acid
Outline: as §1

[13] = tested on: Staphylococcus aureus clinical strains; assay type: cell-based; design: Minimum inhibitory concentration: unit: μg/ml; conditions: microdilution, Muller Hinton broth-cation adjusted, 0.02% BSA, 0.2% acetic acid
Outline: as §1

[14] = tested on: Candida albicans clinical strains; assay: MIC, clinical yeast strains; assay type: cell-based; design: unit: μg/ml
Outline: as §1

[15] = tested on: C. quillermondiae clinical strains; assay: MIC, clinical yeast strains; assay type: cell-based, Candida quillermondiae; design: unit: μg/ml; conditions: C. quillermondiae clinical yeast strain 1
Outline: as §1

CC(C)C[C@@H](NC(=O)[C@H](N)CCCNC(=N)N)C(=O)N[C@H](CCCCN)C(=O)N[C@H](Cc1c[nH]c2ccccc12)C(=O)N[C@H](Cc1ccccc1)C(=O)N[C@H](CC(C)C)C(=O)N[C@H](CC(C)C)C(=O)N[C@H](Cc1ccccc1)C(=O)N[C@H](CCCNC(=N)N)C(=O)N[C@H](CCCCN)C(=O)N[C@H](CCCNC(=N)N)C(=O)O [Chain308D] (H-[dR][dL][dK][dW][dF][dL][dL][dF][dR][dK][dR]-OH)
>128: Minimum inhibitory concentration ([8]; Serratia marcescens clinical strain 4) | Minimum inhibitory concentration ([9]; Proteus mirabilis clinical strain 1) | Minimum inhibitory concentration ([9]; Proteus mirabilis clinical strain 4) | Minimum inhibitory concentration ([9]; Proteus mirabilis clinical strain 5)
64 to 128 µg/mL: MICs against Serratia marcescens ([8]; clinical strains) | MICs against Proteus mirabilis ([9]; clinical strains)
0.5 to 32 µg/mL: MICs against all the bacteria and yeasts tested [2]
1: Minimum inhibitory concentration ([1]; Escherichia coli clinical strain 1) | Minimum inhibitory concentration ([1]; Escherichia coli clinical strain 3) | Minimum inhibitory concentration ([1]; Escherichia coli clinical strain 4) | Minimum inhibitory concentration ([1]; Escherichia coli clinical strain 5) | Minimum inhibitory concentration ([13]; Staphylococcus aureus clinical strain 1) | Minimum inhibitory concentration ([13]; Staphylococcus aureus clinical strain 3)
64: Minimum inhibitory concentration ([8]; Serratia marcescens clinical strain 3)
2: Minimum inhibitory concentration ([10]; Acinetobacter baumannii clinical strain 4) | Minimum inhibitory concentration ([10]; Acinetobacter baumannii clinical strain 5) | Minimum inhibitory concentration ([11]; Enterobacter cloacae clinical strain 1) | Minimum inhibitory concentration ([11]; Enterobacter cloacae clinical strain 2) | Minimum inhibitory concentration ([11]; Enterobacter cloacae clinical strain 3) | Minimum inhibitory concentration ([11]; Enterobacter cloacae clinical strain 4) | Minimum inhibitory concentration ([11]; Enterobacter cloacae clinical strain 5) | Minimum inhibitory concentration ([12]; Streptococcus pneumoniae clinical strain 4) | Minimum inhibitory concentration ([13]; Staphylococcus aureus clinical strain 2) | Minimum inhibitory concentration ([13]; Staphylococcus aureus clinical strain 4) | Minimum inhibitory concentration ([13]; Staphylococcus aureus clinical strain 5)
0.5: Minimum inhibitory concentration ([1]; Escherichia coli clinical strain 2)
128: Minimum inhibitory concentration ([8]; Serratia marcescens clinical strain 1) | Minimum inhibitory concentration ([8]; Serratia marcescens clinical strain 2) | Minimum inhibitory concentration ([8]; Serratia marcescens clinical strain 5) | Minimum inhibitory concentration ([9]; Proteus mirabilis clinical strain 3)
8: Minimum inhibitory concentration ([4]; Pseudomonas aeruginosa clinical strain 1) | Minimum inhibitory concentration ([4]; Pseudomonas aeruginosa clinical strain 2) | Minimum inhibitory concentration ([7]; C. parapsilosis clinical yeast strain 1) | Minimum inhibitory concentration ([7]; C. parapsilosis clinical yeast strain 2) | Minimum inhibitory concentration ([7]; C. parapsilosis clinical yeast strain 3) | Minimum inhibitory concentration ([12]; Streptococcus pneumoniae clinical strain 1) | Minimum inhibitory concentration ([12]; Streptococcus pneumoniae clinical strain 3)
32: Minimum inhibitory concentration ([9]; Proteus mirabilis clinical strain 2)
16: Minimum inhibitory concentration ([6]; C. glabrata clinical yeast strain 1) | Minimum inhibitory concentration ([6]; C. glabrata clinical yeast strain 2) | Minimum inhibitory concentration ([6]; C. glabrata clinical yeast strain 3) | Minimum inhibitory concentration ([6]; C. glabrata clinical yeast strain 4) | Minimum inhibitory concentration ([14]; Candida albicans clinical yeast strain 1) | Minimum inhibitory concentration ([14]; Candida albicans clinical yeast strain 2) | Minimum inhibitory concentration ([14]; Candida albicans clinical yeast strain 3) | Minimum inhibitory concentration ([14]; Candida albicans clinical yeast strain 4) | Minimum inhibitory concentration ([14]; Candida albicans clinical yeast strain 5)
4: Minimum inhibitory concentration ([3]; Klebsiella pneumoniae clinical strain 1) | Minimum inhibitory concentration ([3]; Klebsiella pneumoniae clinical strain 2) | Minimum inhibitory concentration ([3]; Klebsiella pneumoniae clinical strain 3) | Minimum inhibitory concentration ([3]; Klebsiella pneumoniae clinical strain 4) | Minimum inhibitory concentration ([3]; Klebsiella pneumoniae clinical strain 5) | Minimum inhibitory concentration ([4]; Pseudomonas aeruginosa clinical strain 3) | Minimum inhibitory concentration ([4]; Pseudomonas aeruginosa clinical strain 4) | Minimum inhibitory concentration ([4]; Pseudomonas aeruginosa clinical strain 5) | Minimum inhibitory concentration [5] | Minimum inhibitory concentration ([7]; C. parapsilosis clinical yeast strain 4) | Minimum inhibitory concentration ([10]; Acinetobacter baumannii clinical strain 1) | Minimum inhibitory concentration ([10]; Acinetobacter baumannii clinical strain 2) | Minimum inhibitory concentration ([10]; Acinetobacter baumannii clinical strain 3) | Minimum inhibitory concentration ([12]; Streptococcus pneumoniae clinical strain 2) | Minimum inhibitory concentration ([12]; Streptococcus pneumoniae clinical strain 5) | Minimum inhibitory concentration [15]
